This note sets out measurements from US9655822B2, “Hydrated lamellar phases or liposomes which contain a fatty monoamine or a cationic polymer which promotes intracellular penetration, and a cosmetic or pharmaceutical composition containing same, as well as a method of screening such a substance” (BASF Beauty Care Solutions France S.A.S., priority 2004, dated 2017).

One series has as its target T1, tyrosinase (Homo sapiens, UniProt P14679).
T1 construct: on normal human melanocytes cultivated in 24-well plates and pre-confluent; endogenous in cells; host or cells: normal human melanocytes
T1 sequence (P14679 19-529): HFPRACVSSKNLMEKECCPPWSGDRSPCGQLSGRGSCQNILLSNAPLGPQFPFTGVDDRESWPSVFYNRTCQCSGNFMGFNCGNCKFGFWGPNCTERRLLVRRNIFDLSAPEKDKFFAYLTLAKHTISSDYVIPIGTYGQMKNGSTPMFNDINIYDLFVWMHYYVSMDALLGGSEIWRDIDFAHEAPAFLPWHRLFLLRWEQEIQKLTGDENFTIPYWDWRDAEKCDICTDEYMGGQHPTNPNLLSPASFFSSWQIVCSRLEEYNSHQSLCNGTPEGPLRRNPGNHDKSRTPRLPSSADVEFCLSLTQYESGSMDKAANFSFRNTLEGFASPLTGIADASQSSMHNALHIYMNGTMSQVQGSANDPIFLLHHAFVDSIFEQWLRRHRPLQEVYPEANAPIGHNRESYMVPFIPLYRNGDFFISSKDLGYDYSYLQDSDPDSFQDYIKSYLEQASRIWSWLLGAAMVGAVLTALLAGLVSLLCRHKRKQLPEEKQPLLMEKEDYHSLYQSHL
In words: Tyrosinase activity in melanocytes (L-DOPA/MBTH). The series is classed as cell-based. Also noted: unit not given here. As to conditions: 66 hours; for Depigmenting effect: rate of enzymatic reaction (tyrosinase activity), Free: active applied free, normal human melanocytes; for Depigmenting effect: rate of enzymatic reaction (tyrosinase activity), PEI Liposome: active in 10 μM PEI functionalised liposome; for Depigmenting effect: rate of enzymatic reaction (tyrosinase activity), Soya liposome: active in 2% quaternised soya liposome; for Depigmenting effect: rate of enzymatic reaction (tyrosinase activity), Lipsosome: active in 5% lecithin liposome. The method, then:
Actives are also co-encapsulated: Phytolight® (Coletica, Lyons, France) without 0.05% preservative (cocktail of plant actives), 0.05% arbutine and 1 mM catechin (Sigma). […] The actives which are liposomed or not are incubated for 66 hours at 37° C. under 5% CO2 in MMK2 medium (Sigma). […] The formation of a MBTH-o-quinone compound is characterised by an absorbance value at 490 nm quantified kinetically. The tyrosinase activity is expressed by the slope (rate) of the enzymatic reaction.

The subject of series [1] is normal human fibroblasts. In words: Screening of molecules which stimulate the intracellular penetration of PFB-F incorporated in a liposome. It counts as cell-based. The protocol: These molecules are retained in priority. The preparation of the liposomes with primary fatty monoamines of alkyl chain length of between 3 and 18 carbons and the quantification of the intracellular penetration of the fluorescent label are carried out as described in the preceding Example. […] We have thus studied the intracellular penetration of the PFB-F encapsulated in liposomes in the presence of primary fatty monoamines on the one hand, and with secondary fatty monoamines on the other hand. The preparation of the liposomes with primary or secondary fatty amines and the quantification of the intracellular penetration of the fluorescent markers are carried out as described in Example 8.

The test system of series [2] is normal human fibroblasts. In words: Cell viability in the screening of functionalising molecules. The following applies: 1% of molecule (25 kDa PEI: 50 μM), 96-well plate. The method, then:
250 μl of liposomal suspension is added onto cultures of normal human fibroblasts extracted from abdominal plasy and cultivated in a 96-well plate. Each concentration is tested on 6 different wells. The cell viability is evaluated by a test with paranitrophenylphosphate which determines the intracellular alkaline phosphatase activity after three rinses with pH 7.4 phosphate buffer. The percentage of living cells is calculated with respect to a control made without the addition of liposome in the culture well (n=6).
55 molecules are firstly tested in triplicate, in comparison with the 50 μM 25 kDa PEI. The intracellular penetration is quantified after 24 hours of incubation on normal human fibroblasts cultivated in 24-well plates as described in Example 2. The cell viability is estimated in a 96-well plate with 200 μl of liposomal suspension.
The intracellular penetration and the cytotoxicity are evaluated as described in Example 2.

A short description of series [3]: Transcutaneous permeation on human skin. As to conditions: 0.5% vitamin E in liposomes with 2% quaternised soya solution vs free or liposome without quaternised agent; HPLC, 5 to 24 hours.
Method: The diffusion kinetics were quantified by spectrofluorimetry from 3 to 24 hours. The release was quantified after 24 additional hours. The storage was also evaluated last. The number of samples tested is 5 per condition.
The diffusion kinetics were quantified by high performance liquid chromatography from 5 to 24 hours. The release was quantified after 24 additional hours. The storage was also evaluate last.
[4] abbreviates: 1% of molecule (25 kDa PEI: 50 μM), 5% soya lecithin, 0.01% PFB-F, 24 hours.

Consider `OC[C@H]1O[C@@H](Oc2ccc(O)cc2)[C@H](O)[C@@H](O)[C@@H]1O` [Arbutin], for which, on tyrosinase, the “Depigmenting effect: rate of enzymatic reaction (tyrosinase activity), Free” value was determined as 0.004; the “Depigmenting effect: rate of enzymatic reaction (tyrosinase activity), PEI Liposome” value amounted to 0; the “Depigmenting effect: rate of enzymatic reaction (tyrosinase activity), Soya liposome” value is listed as 0; the “Depigmenting effect: rate of enzymatic reaction (tyrosinase activity), Lipsosome” value came out at 0.001.
On to `C[N+](C)(CCO)CCCNC(=O)[C@H](O)[C@@H](O)[C@H](O)[C@H](O)CO.[Cl-]` [Quaternium 22], for which the Stimulation factor in the series on normal human fibroblasts [1] (setting [4]) is 2. In the series with normal human fibroblasts [2], this compound returned a Viability of 98.9%.
As to `CCCCN` [n-Butylamine C4, n-Butylamine], the Stimulation factor in the series with normal human fibroblasts [1] (setting [4]) was 1.4; with normal human fibroblasts [1] (by number of alkyl chains of the amine (chain length), as in Example 8), 1.7; in the series on normal human fibroblasts [1] (primary monoamine with a single alkyl fatty chain, by number of carbons, as in Example 8), 1.4.
On to Catechin, for which, on tyrosinase, the “Depigmenting effect: rate of enzymatic reaction (tyrosinase activity), Free” value stood at 0.007; the “Depigmenting effect: rate of enzymatic reaction (tyrosinase activity), PEI Liposome” value came to 0; the “Depigmenting effect: rate of enzymatic reaction (tyrosinase activity), Soya liposome” value turned out to be 0.003; the “Depigmenting effect: rate of enzymatic reaction (tyrosinase activity), Lipsosome” value worked out at 0.007.
As for Quaternium 26, in the series with normal human fibroblasts [1] (setting [4]), the Stimulation factor is 30.9. Moreover, in the series with normal human fibroblasts [2], the Viability turned out to be 59.2%.
Compound Quaternium 70 and PG registered a Stimulation factor in the series with normal human fibroblasts [1] (setting [4]) of −0.2. This compound also yielded a Viability with normal human fibroblasts [2] of 63.9%.
As for “Stearamidopropyl cetearyl dimonium tosylate and PG”, the Stimulation factor in the series on normal human fibroblasts [1] (setting [4]) came to 13.1. In addition, in the series with normal human fibroblasts [2], the Viability is given as 93.2%.
With vitamin E, the “diffusion, release and storage (in words)” value in series [3] was “significantly stimulates the diffusion, the release and the storage”.
